The text below walks through data of ChEMBL document CHEMBL4270498, “Targeting Eph/ephrin system in cancer therapy” (Eur J Med Chem, 2017).

The target in one series is T1, Ephrin type-B receptor 4 (Homo sapiens, UniProt P54760).
T1 sequence (P54760 whole entry): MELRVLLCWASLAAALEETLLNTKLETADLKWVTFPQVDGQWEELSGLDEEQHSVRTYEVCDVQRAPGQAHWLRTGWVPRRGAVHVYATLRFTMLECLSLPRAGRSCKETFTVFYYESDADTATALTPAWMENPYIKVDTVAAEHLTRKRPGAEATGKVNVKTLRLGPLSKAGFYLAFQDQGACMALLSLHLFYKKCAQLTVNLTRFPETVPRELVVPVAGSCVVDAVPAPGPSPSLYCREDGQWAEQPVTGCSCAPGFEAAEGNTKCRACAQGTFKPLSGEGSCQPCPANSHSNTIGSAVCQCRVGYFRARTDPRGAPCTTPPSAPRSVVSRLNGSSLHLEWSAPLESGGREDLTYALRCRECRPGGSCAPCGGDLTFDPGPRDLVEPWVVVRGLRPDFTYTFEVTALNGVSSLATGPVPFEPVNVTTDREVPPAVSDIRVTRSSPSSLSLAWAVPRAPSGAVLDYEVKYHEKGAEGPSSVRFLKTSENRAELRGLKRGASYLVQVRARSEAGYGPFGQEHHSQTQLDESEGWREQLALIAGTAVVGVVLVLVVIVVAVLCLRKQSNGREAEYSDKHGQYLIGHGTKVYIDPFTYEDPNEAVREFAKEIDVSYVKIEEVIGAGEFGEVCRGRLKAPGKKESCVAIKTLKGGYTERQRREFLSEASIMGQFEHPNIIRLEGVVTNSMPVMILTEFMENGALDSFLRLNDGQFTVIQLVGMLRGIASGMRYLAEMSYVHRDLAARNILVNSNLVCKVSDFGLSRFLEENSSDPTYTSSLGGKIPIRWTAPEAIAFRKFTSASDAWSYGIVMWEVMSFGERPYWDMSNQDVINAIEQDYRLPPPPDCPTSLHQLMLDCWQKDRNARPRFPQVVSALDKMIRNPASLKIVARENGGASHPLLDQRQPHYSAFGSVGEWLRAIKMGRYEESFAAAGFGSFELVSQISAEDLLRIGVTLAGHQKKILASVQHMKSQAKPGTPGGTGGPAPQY
Put plainly: Binding affinity to Fc-tagged EphB4 (unknown origin) assessed as reduction in ephrin-B2 binding by SPR assay. On the technique in general: Surface plasmon resonance follows binding to a sensor surface in real time, without labels.

Series [1] deals with T2, Ephrin type-A receptor 2 (Mus musculus, UniProt Q03145). Kind of series: Binding affinity to histidine-tagged mouse EphA2 Fc fusion protein by SPR assay.
T2 sequence (Q03145 whole entry, the tested form may be a part): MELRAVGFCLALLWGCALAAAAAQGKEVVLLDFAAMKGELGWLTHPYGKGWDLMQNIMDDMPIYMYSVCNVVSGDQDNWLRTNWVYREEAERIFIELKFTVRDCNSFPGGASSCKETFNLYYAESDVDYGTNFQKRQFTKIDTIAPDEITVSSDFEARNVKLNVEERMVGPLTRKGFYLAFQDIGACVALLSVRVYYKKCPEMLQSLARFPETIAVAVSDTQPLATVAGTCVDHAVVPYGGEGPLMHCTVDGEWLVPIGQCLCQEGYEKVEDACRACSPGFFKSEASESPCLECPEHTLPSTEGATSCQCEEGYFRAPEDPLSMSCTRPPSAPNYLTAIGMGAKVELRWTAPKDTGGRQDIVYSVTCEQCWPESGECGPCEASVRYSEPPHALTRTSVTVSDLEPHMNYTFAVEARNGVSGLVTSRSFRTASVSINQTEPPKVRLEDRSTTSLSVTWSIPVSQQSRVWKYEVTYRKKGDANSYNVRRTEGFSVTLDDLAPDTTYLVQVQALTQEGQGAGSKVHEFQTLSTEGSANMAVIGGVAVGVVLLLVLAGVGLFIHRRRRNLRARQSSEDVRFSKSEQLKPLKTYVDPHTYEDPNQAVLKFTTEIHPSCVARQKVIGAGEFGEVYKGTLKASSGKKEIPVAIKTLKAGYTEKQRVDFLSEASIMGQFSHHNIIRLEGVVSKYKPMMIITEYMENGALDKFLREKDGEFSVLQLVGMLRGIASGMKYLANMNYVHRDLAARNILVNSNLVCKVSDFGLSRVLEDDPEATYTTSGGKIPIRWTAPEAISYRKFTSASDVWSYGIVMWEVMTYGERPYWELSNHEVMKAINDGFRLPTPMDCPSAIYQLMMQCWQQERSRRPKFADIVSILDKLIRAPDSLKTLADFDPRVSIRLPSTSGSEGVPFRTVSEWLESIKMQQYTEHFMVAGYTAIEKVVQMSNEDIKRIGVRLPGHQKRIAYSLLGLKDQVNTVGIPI
In series [2] the target is Ephrin type-A receptor 2 (Homo sapiens, UniProt P29317). Put plainly: Binding affinity to EphA2 (unknown origin).
Sequence of Ephrin type-A receptor 2 (Homo sapiens, UniProt P29317) (P29317 whole entry): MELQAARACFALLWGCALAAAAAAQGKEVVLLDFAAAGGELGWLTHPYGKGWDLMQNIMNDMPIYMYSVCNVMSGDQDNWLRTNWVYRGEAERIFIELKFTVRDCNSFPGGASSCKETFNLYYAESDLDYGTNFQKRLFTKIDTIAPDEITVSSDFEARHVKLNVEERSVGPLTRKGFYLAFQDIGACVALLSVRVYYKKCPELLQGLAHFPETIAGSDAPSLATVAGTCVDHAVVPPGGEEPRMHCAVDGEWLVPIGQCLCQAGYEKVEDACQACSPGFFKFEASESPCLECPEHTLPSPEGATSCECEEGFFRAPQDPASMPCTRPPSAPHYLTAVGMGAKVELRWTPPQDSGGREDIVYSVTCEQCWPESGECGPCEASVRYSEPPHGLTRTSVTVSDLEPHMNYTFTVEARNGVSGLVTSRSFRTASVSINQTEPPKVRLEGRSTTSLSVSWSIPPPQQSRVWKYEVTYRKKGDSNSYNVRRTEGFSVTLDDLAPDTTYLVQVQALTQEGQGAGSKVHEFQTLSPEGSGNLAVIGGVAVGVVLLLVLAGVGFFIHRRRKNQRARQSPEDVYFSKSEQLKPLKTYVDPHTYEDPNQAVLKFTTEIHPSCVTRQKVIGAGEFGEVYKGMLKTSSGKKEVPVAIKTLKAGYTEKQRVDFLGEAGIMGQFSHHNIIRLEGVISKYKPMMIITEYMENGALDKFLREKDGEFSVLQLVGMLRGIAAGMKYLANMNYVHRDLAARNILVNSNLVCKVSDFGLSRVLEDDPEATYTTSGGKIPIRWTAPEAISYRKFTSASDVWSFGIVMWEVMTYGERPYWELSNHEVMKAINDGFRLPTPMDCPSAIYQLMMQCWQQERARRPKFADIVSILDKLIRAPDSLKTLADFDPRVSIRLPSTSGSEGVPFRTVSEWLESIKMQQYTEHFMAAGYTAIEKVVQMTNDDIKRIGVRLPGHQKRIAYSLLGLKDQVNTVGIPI
The target of series [3] is T2, Ephrin type-A receptor 2. Kind of series: Displacement of biotinylated ephrinA1-Fc from recombinant mouse EphA2 Fc chimera protein by ELISA. (In general: In an ELISA, binding on a coated surface is turned into a signal by an enzyme label.)
Series [4] is described as follows: Half life in mouse at 30 mg/kg, iv. In kind it is ADME, organism-based. The following applies: in vivo.

Where only a bound is given, the exact number is not on record here.

As for H-TNYLFSPNGPIARAW-OH, at Ephrin type-B receptor 4, the Kd (commonly the equilibrium constant for the complex coming apart) was found to be 2 nM. For the compound `CC(C)C[C@H](NC(=O)[C@H](Cc1c[nH]c2ccccc12)NC(=O)[C@@H](N)CO)C(=O)N[C@@H](C)C(=O)N[C@@H](Cc1ccc(O)cc1)C(=O)N1CCC[C@H]1C(=O)NCC(=O)N[C@@H](C)C(=O)N[C@H](C(=O)N[C@@H](CO)C(=O)N[C@@H](Cc1ccc(O)cc1)C(=O)N[C@@H](CCCN=C(N)N)C(=O)O)C(C)C`, the equilibrium dissociation constant (Kd) on Ephrin type-A receptor 2 [1] was 700 nM. For the compound `C[C@H](CCC(=O)N[C@H](CC(=O)O)Cc1c[nH]c2ccccc12)[C@H]1CC[C@H]2[C@@H]3CC[C@@H]4CCCC[C@]4(C)[C@H]3CC[C@]12C`, at Ephrin type-A receptor 2 [2], the Ki (in general, a dissociation constant, usually derived from enzyme kinetics or from competition with a known ligand) is above 15 µM. Turning to `C[C@H](CCC(=O)O)[C@H]1CC[C@H]2[C@@H]3CC[C@@H]4C[C@H](O)CC[C@]4(C)[C@H]3CC[C@]12C` [LITHOCHOLIC ACID], the IC50 (as a rule, the midpoint of a concentration-inhibition curve) at Ephrin type-A receptor 2 [3] amounted to 57 µM.

On to `CCCC[C@H](NC(=O)[C@@H]1CCCN1C(=O)[C@@H](NC(=O)[C@H](CO)NC(=O)[C@H](CC(=O)O)NC(=O)[C@@H]1CCCN1C(=O)[C@H](Cc1ccc(O)cc1)NC(=O)[C@H](C)NC(=O)[C@H](CO)NC(=O)COc1ccc(F)c(Cl)c1)C(C)C)C(=O)N[C@@H](CCO)C(=O)N[C@@H](CO)C(=O)N[C@@H](CCCCNC(=O)CCCc1cn(CCCCCOC(=O)COCC(=O)O[C@@H](C(=O)O[C@H]2C[C@@]3(O)[C@@H](OC(=O)c4ccccc4)[C@@H]4[C@]5(OC(C)=O)CO[C@@H]5C[C@H](O)[C@@]4(C)C(=O)[C@H](OC(C)=O)C(=C2C)C3(C)C)[C@@H](NC(=O)c2ccccc2)c2ccccc2)nn1)C(=O)O`, for which the half-life (commonly how long it takes for the measured level to halve) in series [4] is above 120 min.
